Assay results as given in ChEMBL document CHEMBL3039007, “Structure-based identification of OATP1B1/3 inhibitors” (Mol Pharmacol, 2013).

Legend:
[1] = target: T1, Solute carrier organic anion transporter family member 1B3 (Homo sapiens, UniProt Q9NPD5)
T1 sequence (Q9NPD5 whole entry): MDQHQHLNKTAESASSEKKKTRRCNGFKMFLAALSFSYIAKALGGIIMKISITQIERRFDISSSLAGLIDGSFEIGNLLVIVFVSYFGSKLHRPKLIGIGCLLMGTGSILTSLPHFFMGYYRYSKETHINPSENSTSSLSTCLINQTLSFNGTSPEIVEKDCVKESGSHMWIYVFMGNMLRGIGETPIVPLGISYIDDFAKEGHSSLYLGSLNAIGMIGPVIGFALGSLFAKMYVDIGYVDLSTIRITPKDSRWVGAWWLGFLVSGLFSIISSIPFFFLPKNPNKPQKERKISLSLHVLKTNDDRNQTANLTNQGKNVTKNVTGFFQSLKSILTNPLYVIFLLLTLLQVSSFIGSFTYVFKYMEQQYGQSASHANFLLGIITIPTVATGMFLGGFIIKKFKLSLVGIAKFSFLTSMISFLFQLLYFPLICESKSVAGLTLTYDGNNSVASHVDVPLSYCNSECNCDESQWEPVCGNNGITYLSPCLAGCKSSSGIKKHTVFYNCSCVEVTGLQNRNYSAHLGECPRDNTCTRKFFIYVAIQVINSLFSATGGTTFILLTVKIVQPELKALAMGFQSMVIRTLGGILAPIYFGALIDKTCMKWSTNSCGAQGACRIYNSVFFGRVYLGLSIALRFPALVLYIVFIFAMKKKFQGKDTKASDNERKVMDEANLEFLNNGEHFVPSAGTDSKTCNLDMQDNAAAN

[2] = target: T1, Solute carrier organic anion transporter family member 1B3; conditions: chinese hamster, cho, 10 µM
[3] = target: T2, Solute carrier organic anion transporter family member 1B1 (Homo sapiens, UniProt Q9Y6L6); conditions: chinese hamster, cho, 10 µM
T2 sequence (Q9Y6L6 whole entry): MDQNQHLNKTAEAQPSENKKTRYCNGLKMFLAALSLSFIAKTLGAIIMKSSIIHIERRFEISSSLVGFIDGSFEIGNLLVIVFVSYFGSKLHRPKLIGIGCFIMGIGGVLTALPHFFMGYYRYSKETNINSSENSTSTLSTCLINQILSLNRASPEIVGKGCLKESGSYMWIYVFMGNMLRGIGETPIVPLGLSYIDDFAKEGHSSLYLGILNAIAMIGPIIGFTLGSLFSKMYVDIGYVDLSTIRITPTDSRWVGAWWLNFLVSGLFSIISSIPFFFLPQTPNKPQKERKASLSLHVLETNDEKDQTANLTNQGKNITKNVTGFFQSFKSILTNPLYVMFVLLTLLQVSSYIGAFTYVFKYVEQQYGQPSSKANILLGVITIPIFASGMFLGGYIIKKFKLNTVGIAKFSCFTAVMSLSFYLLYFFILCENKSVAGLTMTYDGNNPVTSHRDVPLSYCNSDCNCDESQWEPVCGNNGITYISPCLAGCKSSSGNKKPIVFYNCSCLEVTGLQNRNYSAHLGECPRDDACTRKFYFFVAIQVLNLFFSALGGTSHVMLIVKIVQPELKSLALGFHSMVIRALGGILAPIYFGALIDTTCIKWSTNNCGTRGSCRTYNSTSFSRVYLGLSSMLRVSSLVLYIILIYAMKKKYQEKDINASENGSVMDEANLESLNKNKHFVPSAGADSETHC

[4] = target: T2, Solute carrier organic anion transporter family member 1B1
[5] = target: T1, Solute carrier organic anion transporter family member 1B3; remark: listed apart in the source
[6] = target: T2, Solute carrier organic anion transporter family member 1B1; remark: listed apart in the source

IC50 [1]: 3.39 µM | residual activity [2]: 11.66% | residual activity [3]: 11.04% | IC50 [4]: 1.41 µM | Ki [5]: 2.61 µM | Ki [6]: 0.78 µM
SMILES: C/C=C(\C)C(=O)O[C@H]1[C@H](OC(C)=O)[C@@]2(CO)C(CC1(C)C)C1=CC[C@@H]3[C@@]4(C)CC[C@H](O[C@@H]5O[C@H](C(=O)O)[C@@H](O[C@@H]6O[C@H](CO)[C@@H](O)[C@H](O)[C@H]6O)[C@H](O)[C@H]5O[C@@H]5O[C@H](CO)[C@@H](O)[C@H](O)[C@H]5O)[C@H](CO)C4CC[C@@]3(C)[C@@]1(C)C[C@H]2O (stereo partly drawn) [beta-ESCIN]
